Assays:
egg white avidin = target: T1, egg white avidin (Gallus gallus, UniProt P02701); experiment: Cyclic / square wave voltammetry of the complexes before and after addition of avidin; type: binding; settings: for current signal after addition of biotin to the avidin-bound complex (displacement): 25 equiv (25-fold excess) of biotin; for current signal of the redox couple upon addition of avidin: CV, glassy carbon electrode
T1 construct: Egg white avidin (Molecular Probes); purchased Molecular Probes; host or cells: egg white
Protocol: All operations involving Ru were carried out under argon according to standard Schlenk techniques. [(H2O)Ru(NH3)5]^2+ was either generated and isolated as the PF6^− salt according to the literature procedure and then used or the or Cl^− salt was used directly (See, e.g., Callahan et al., Inorg. Chem. 1975, 14, 1443-1453). Electrochemical experiments were carried out using a CH Instruments 660A workstation, a glassy carbon working electrode, a Ag/AgCl reference electrode and a platinum wire counter electrode.
A solution of [(4-BMP)Ru(NH3)5](PF6)2 in pH 9.3 phosphate buffer was prepared and the cyclic voltammogram obtained.
A solution of 1.0 mg [(4-DMP)Ru(NH3)5](PF6)2 in 4.2 mL 0.5M NaCl in H2O was prepared and the cyclic voltammogram obtained. […] To this was added 26 mg avidin, the CV obtained, and then 0.25 mL of a solution of methyl viologen (10 mg/5 mL; 7.77×10^−3M) was added and the CV remeasured.
A 19 mg portion of avidin was added, the CV and square wave voltammograms were recorded.
A 4.8×10^−5 M solution (0.75 mg) of [(4-DPEP)Ru(NH3)5](PF6)2 in pH 7.18 phosphate buffer was prepared and the cyclic voltammogram obtained.
The electrochemical experiments were performed in phosphate buffer at pH 9.3, 8.1, and 7.3, in 0.5M NaCl solution, and in pH 7.3 HEPES buffer.

avidin [1] = target: T2, avidin (Gallus gallus, UniProt P02701); experiment: Oxidation by [Ru(NH3)6]^3+, decrease of UV-visible absorption at 410 nm over time, free vs avidin-bound; settings: oxidant [Ru(NH3)6]^3+
Protocol: In the case of [(4-DPEP)Ru(NH3)5]^2+ the oxidant [Ru(NH3)6]^3+ was added and the decrease of the UV-visible absorption at 410 nm was monitored over time.

avidin [2] = target: T2, avidin; settings: non-covalent protein-small molecule interaction; cited from earlier work

T1 sequence (P02701 25-152): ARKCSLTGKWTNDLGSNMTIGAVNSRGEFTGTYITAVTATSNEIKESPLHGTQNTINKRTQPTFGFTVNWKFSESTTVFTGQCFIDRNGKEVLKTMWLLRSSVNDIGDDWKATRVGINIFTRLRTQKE
T2 sequence (P02701 25-152): as above

current signal after addition of biotin to the avidin-bound complex (displacement) (egg white avidin) | current signal after addition of biotin to the avidin-bound complex (displacement) (egg white avidin; listed as [(4-DMP)Ru(NH3)5](PF6)2) | current signal of the redox couple upon addition of avidin (egg white avidin) | effect of added electrochemical mediators on the current signal of the Ru couple (egg white avidin; avidin present, mediators 4,4′-bipyridine and methyl viologen) | rate of oxidation, avidin-bound versus free complex (avidin [1]) | current signal of the redox couple upon addition of avidin (egg white avidin; listed as [(4-DPEP)Ru(NH3)5](PF6)2) | Compound | kd of binding to avidin (avidin [2])
increased nearly to the original level | the signal was regenerated | decreased | no effect on the current signal | – | – | [(4-DMP)RU(NH3)5][PF6]2 [[(4-DMP)Ru(NH3)5]^2+] | –
– | – | decreased the signal | – | qualitatively slower | disappeared upon addition of avidin | [(4-DPEP)Ru(NH3)5][PF6]2 [[(4-DPEP)Ru(NH3)5]^2+] | –
– | – | – | – | – | – | C[C@@H]1NC(=O)N[C@@H]1CCCCCC(=O)O [desthiobiotin] | only slightly lower than that of biotin-avidin

— US20060003382A1, “Compositions and methods for analyte detection” (priority 2004, published 2006)
